Experimental findings from patent publication US20190298715A1, “IMMUNE EFFECTOR CELL THERAPIES WITH ENHANCED EFFICACY” (Novartis AG, priority 2016, published 2019) are described below.

Series [1] deals with T1, full-length LSD1 (Homo sapiens, UniProt O60341).
T1 construct: the full-length LSD1 and 0.5 μM FAD in reaction buffer
In words: FL-LSD1 LC-MS assay. The following applies: 0.4 nM FL-LSD1, 0.25 μM FAD, 0.5 μM H3K4me1 peptide, 60 min; read-out: LCMS IC50 (LSD1 IC50 as measured by LCMS). In kind it is biochemical. The procedure:
Representative compounds of the present disclosure were serially and separately diluted 3-fold in DMSO to obtain a total of twelve concentrations. […] A 5 μL solution of 1 μM of the peptide substrate H3K4me1 (histone H3[1-21]-biotin) in reaction buffer was added to each initiate reaction. […] The conversion ratio of H3K4me1 substrate to the H3K4me0 product was calculated by dividing the peak area of the H3K4me0 peptide by the total peak area of all those two peptides on the assumption that the ionization efficiency of those peptides is the same. The data were then fit to a dose response equation using the program Helios to get the IC50 values of the test compound.

The test system of series [2] is human T cells. Description: T cell phenotype after anti-CD3/CD28 expansion with LSD1 shRNA (flow cytometry). In kind it is cell-based. To be noted: 10 days anti-CD3/CD28 expansion, transfected with DNA encoding shRNA. The procedure: Flow cytometry was performed on a four laser Fortessa (Becton-Dickinson).
Inhibition of LSD1 by shRNA promotes the expansion of TSCM cells T cells were isolated by negative selection and expanded with anti-CD3/CD28 beads at a 3:1 ratio for 10 days. On day 1, T cells were transduced with lentiviral expression vectors containing LSD1 shRNA targeting sequences that co-expressed the fluorescent protein mCherry. Following expansion, T cell phenotypes of mCherry+ T cells were assessed by flow cytometry.
Background: Flow cytometry measures light scatter and fluorescence of single cells or particles in a stream.

As usually defined, the IC50 is the midpoint of a concentration-inhibition curve. For `CS(=O)(=O)c1ccc(-c2cc(-c3cc(C#N)c(N4CCNCC4)[nH]3)ccc2Cl)cc1` [5-(6-chloro-4′-(methylsulfonyl)biphenyl-3-yl)-2-(piperazin-1-yl)-1H-pyrrole-3-carbonitrile], the IC50 in series [1] was 12 nM.
Still for that read-out and setting: the figure for `CN(C)C1CCN(S(=O)(=O)c2ccc(-n3ncc4c(-c5ccc(C6CCNCC6)cc5)cccc43)cc2)CC1` [N,N-dimethyl-1-((4-(4-(4-(piperidin-4-yl)phenyl)-1H-indazol-1-yl)phenyl)sulfonyl)piperidin-4-amine] is 9 nM; for `COc1ccc(-n2cc(-c3cccc(N)c3C)c3cc(C#N)c(C)cc32)cc1` [NVS Compound 2, 3-(3-amino-2-methylphenyl)-1-(4-methoxyphenyl)-6-methyl-1H-indole-5-carbonitrile] it is 5 nM.
For “LSD1 2: shRNA to LSD1, encoded by SEQ ID NO: 127 (DNA CAGAAGGCCTAGACATTAAACCTCGAGGTTTAATGTCTAGGCCTTCTGTTTTTTGA; the letters are possibly those of the target site)”, in series [2], the “percentage of CD4+ T cells having the TSCM (CD45RA+CD62L+CCR7+CD27+CD95+) phenotype” value was “enriched in TSCM” and the “percentage of CD8+ T cells having the TSCM (CD45RA+CD62L+CCR7+CD27+CD95+) phenotype” value is on record as approximately 50%.

B1: LSD1 1A: shRNA to LSD1, encoded by SEQ ID NO: 125 (nucleic acid)
DNA: CGGTTGCTAGAAGCTACATCTGTTAATATTCATAGCAGATGTAGCTTCTAGCAACCGTTTTTTGA
For the molecule B1, in series [2], the “percentage of CD4+ T cells having the TSCM (CD45RA+CD62L+CCR7+CD27+CD95+) phenotype” value is reported as “enriched in TSCM” and the “percentage of CD8+ T cells having the TSCM (CD45RA+CD62L+CCR7+CD27+CD95+) phenotype” value is approximately 50%.

B2: LSD1 1B: shRNA to LSD1, encoded by SEQ ID NO: 126 (nucleic acid)
DNA: CGGTTGCTAGAAGTTACATTTGTTAATATTCATAGCAGATGTAGCTTCTAGCAACCGTTTTTTGA
modifications: the letters are possibly those of the target site
With B2, in series [2], the “percentage of CD4+ T cells having the TSCM (CD45RA+CD62L+CCR7+CD27+CD95+) phenotype” value is given as “up to 20%” and the “percentage of CD8+ T cells having the TSCM (CD45RA+CD62L+CCR7+CD27+CD95+) phenotype” value is given as approximately 50%.
